In US20260042754A1, “Substituted Bicyclic Heteroaryl Sulfonamide Derivatives for the Treatment of Cancer” (NODUS ONCOLOGY LIMITED, priority 2022, published 2026):
Like-named read-outs stand apart in the source and are kept apart here.

How the values were obtained:
[1] = target: Recombinant His-tagged human PARG protein (Homo sapiens (Human), UniProt Q86W56); assay: PARG enzymatic assay (TFMU-ADPr fluorescence); format: biochemical; settings: 1 nM enzyme, 200 μM TFMU-ADPr, read after 30 minutes
Summary of the method: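 Sf21-expressed His-tagged human PARG (1 nM) preincubated 15 min with compound (8-point series, 0.5% DMSO) in pH 7.4 phosphate/KCl/β-mercaptoethanol buffer, then 200 μM TFMU-ADPr added. Fluorescence (ex 380/em 535 nm) read after 30 min; IC50 from 4-parameter logistic fit, no-enzyme control as bottom.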

[2] = target: human PARG (PARG-NanoLuc fusion in HEK293T cells) (Homo sapiens (Human), UniProt Q86W56); assay: PARG NanoBRET-based cellular target engagement assay; format: cell-based; settings: HEK293T cells transfected with PARG-NanoLuc, NanoBRET probe 0.89 μM, 2 hours; read-out: PARG TE IC50
Summary of the method: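 HEK293T cells transiently expressing full-length human PARG with C-terminal NanoLuc, plated 24 h, then given compound (8-point series, 0.5% DMSO) for 15 min at room temperature. NanoBRET tracer added at 0.89 μM final, 2 h at 37° C.; BRET ratio (460/645 nm) fitted by 4-parameter logistic to give IC50.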

NCI-H1650 = assay: Modified cell proliferation assay (CellTiter-Glo), NCI-H1650; format: cell-based; settings: modified protocol, 384-well, 300 cells per well, 120 h, highest concentration tested 30000 nM, read-out: NCI-H1650 GI50 (high PARG dependency)
Summary of the method: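 NCI-H1650 or RMUG-S cells seeded at 300 cells/well in RPMI1640 with 10% FCS, compounds added after 24 h, then 120 h at 37 °C/5% CO2. Viability read by CellTiter-Glo luminescence; IC50 from fitted dose-response inflection point. Z′≥0.5 required.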

Sequence of human PARG (PARG-NanoLuc fusion in HEK293T cells) (Q86W56 whole entry, the tested form may be a part): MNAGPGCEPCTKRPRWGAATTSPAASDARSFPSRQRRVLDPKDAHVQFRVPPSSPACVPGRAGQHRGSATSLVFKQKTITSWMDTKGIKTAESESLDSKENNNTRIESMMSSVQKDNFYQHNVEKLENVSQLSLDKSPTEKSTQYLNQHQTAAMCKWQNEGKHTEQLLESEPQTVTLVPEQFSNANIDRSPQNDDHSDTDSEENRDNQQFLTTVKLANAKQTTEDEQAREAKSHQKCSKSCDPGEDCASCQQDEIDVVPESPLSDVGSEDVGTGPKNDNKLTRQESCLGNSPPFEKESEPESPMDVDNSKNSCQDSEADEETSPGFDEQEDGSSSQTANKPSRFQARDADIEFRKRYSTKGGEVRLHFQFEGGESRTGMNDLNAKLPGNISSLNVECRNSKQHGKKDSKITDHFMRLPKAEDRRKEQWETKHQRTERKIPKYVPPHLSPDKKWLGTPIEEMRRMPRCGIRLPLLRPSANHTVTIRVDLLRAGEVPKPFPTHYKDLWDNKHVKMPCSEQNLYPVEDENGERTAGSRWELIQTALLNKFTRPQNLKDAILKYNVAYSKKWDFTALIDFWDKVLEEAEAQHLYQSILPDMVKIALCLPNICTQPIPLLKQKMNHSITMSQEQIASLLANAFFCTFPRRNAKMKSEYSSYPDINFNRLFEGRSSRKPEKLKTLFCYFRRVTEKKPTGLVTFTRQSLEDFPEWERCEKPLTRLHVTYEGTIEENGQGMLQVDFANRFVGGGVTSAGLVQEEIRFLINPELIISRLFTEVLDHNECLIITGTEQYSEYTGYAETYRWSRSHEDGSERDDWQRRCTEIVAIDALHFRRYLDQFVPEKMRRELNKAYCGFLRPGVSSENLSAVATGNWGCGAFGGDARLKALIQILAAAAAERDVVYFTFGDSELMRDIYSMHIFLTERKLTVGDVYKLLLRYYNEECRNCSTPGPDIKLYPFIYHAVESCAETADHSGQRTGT
Sequence of Recombinant His-tagged human PARG protein (Q86W56 whole entry): as the sequence (Q86W56 whole entry, the tested form may be a part) above

| SMILES | IC50 [1] [nM] | IC50 [2] [nM] | GI50 (NCI-H1650; Homo sapiens, NCI-H1650) [nM] | GI50 (NCI-H1650) [nM] |
| --- | --- | --- | --- | --- |
| CO/N=c1\[nH]c2c(-c3ccc(C(=O)N(C)C)cc3)cc(S(=O)(=O)NC3(C)CC3)cc2c(=O)n1Cc1cnn(C)c1 [Example 5, 4-[2-methoxyimino-6-[(1-methylcyclopropyl)sulfamoyl]-3-[(1-methylpyrazol-4-yl)methyl]-4-oxo-1H-quinazolin-8-yl]-N,N-dimethyl-benzamide] | < 30 | < 30 | > 2000 | – |
| CO/N=c1\[nH]c2ccc(S(=O)(=O)NC3(C)CC3)cc2c(=O)n1Cc1cnc(C)s1 [Example 1, 2-methoxyimino-N-(1-methylcyclopropyl)-3-[(2-methylthiazol-5-yl)methyl]-4-oxo-1H-quinazoline-6-sulfonamide] | < 30 | 30 to 99 | 500 to 2000 | – |
| CO/N=c1\[nH]c2ccc(S(=O)(=O)NC3(C)COC3)cc2c(=O)n1Cc1cnn(C)c1 [Example 2, 2-methoxyimino-N-(3-methyloxetan-3-yl)-3-[(1-methylpyrazol-4-yl)methyl]-4-oxo-1H-quinazoline-6-sulfonamide] | 30 to 99 | 100 to 1000 | 500 to 2000 | – |
| CON=c1[nH]c2c(N3CCN(C(=O)C4(C)CC4)[C@H](C)C3)cc(S(=O)(=O)NC3(C)CC3)cc2c(=O)n1Cc1cnn(C)c1 [Example 8, 2-methoxyimino-N-(1-methylcyclopropyl)-3-[(1-methylpyrazol-4-yl)methyl]-4-oxo-8-[(3R)-3-methyl-4-(1-methylcyclopropanecarbonyl)piperazin-1-yl]-1H-quinazoline-6-sulfonamide] | < 30 | < 30 | – | < 500 |
| CO/N=c1\[nH]c2c(N3CCN[C@H](C)C3)cc(S(=O)(=O)NC3(C)CC3)cc2c(=O)n1Cc1cnn(C)c1 [Example 7, 2-methoxyimino-N-(1-methylcyclopropyl)-3-[(1-methylpyrazol-4-yl)methyl]-4-oxo-8-[(3R)-3-methylpiperazin-1-yl]-1H-quinazoline-6-sulfonamide] | < 30 | < 30 | < 500 | – |
| Cc1nc(C)c(CO/N=c2\[nH]c3ccc(S(=O)(=O)NC4(C)CC4)cc3c(=O)n2Cc2cnn(C)c2)s1 [Example 3, 2-[(2,4-dimethylthiazol-5-yl)methoxyimino]-N-(1-methylcyclopropyl)-3-[(1-methylpyrazol-4-yl)methyl]-4-oxo-1H-quinazoline-6-sulfonamide] | < 30 | 100 to 1000 | > 2000 | – |
